From patent publication US20250145676A1, “FUNCTIONAL EXPRESSION OF ECTOPIC TMC1 AND TMC2 IN HETEROLOGOUS CELLS” (The Hong Kong University of Science and Technology, priority 2023, published 2025)

Biological target: T1, Fyn-mTMC2-mCherry+mTMIE channel (Mus musculus, UniProt Q8R4P4)
T1 construct: expressed in transfected cells; host or cells: PK-HEK293T (PIEZO1-knockout HEK293T)
T1 sequence (Q8R4P4 1-888): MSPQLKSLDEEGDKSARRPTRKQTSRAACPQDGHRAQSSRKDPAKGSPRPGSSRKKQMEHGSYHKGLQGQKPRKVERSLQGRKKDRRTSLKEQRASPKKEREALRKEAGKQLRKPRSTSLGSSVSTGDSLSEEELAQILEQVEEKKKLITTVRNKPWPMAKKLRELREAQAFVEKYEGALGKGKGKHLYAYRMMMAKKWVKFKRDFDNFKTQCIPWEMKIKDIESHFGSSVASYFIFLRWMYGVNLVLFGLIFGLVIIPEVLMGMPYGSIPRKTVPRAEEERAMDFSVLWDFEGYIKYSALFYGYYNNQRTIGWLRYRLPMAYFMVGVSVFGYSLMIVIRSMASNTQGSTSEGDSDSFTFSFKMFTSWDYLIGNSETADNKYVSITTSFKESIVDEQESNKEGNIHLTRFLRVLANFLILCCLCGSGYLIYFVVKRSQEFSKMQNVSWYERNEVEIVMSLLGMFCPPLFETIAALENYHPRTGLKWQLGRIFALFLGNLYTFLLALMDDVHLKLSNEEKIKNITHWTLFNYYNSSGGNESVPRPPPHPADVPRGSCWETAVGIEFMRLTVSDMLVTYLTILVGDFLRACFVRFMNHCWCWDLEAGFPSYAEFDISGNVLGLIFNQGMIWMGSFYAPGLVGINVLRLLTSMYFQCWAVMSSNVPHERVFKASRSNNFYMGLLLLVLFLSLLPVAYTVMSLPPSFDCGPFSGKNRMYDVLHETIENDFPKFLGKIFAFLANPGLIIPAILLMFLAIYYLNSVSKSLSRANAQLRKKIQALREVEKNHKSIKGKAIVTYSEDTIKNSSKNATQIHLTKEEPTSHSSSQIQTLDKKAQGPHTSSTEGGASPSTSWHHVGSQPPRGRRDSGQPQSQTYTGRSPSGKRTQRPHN
T1 sequence (Q8K467 29-153 partner): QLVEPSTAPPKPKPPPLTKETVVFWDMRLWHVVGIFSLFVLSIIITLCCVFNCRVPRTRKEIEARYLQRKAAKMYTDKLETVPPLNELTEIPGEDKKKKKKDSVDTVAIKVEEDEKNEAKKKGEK
Test: Whole-cell poking patch-clamp assay, DHS sensitivity of MS currents
Format: cell-based
Settings: 2 mM DHS in the bath; PK-HEK293T cells co-expressing Fyn-mTMC2-mCherry and mTMIE; 4 experiments, p=0.0044
Procedure: Briefly, PK-HEK293T cells were incubated for 24 h after transfection before performing the whole-cell patch-clamp assay at room temperature. For co-transfection of two plasmids, the w/w ratio of TMC1/2 plasmids and TMIE plasmid was 3:1. The bath solution contained (in mM) 137 NaCl, 5.8 KCl, 0.7 NaH2PO4, 10 HEPES, 1.3 CaCl2, 0.9 MgCl2, 5.6 glucose (pH 7.3 with NaOH); the pipette solution contained (in mM) 137 CsCl, 0.1 EGTA, 10 HEPES, 3.5 MgCl2 (pH 7.3 with CsOH). The recording glass pipettes (1B150-4 Borosilicate Glass Capillaries, World Precision Instruments) were pulled and polished using a pipette puller (DMZ, Zeitz Instruments) and featured a resistance of 3-5 MQ. The mechanical stimulus was applied by poking cells with a fire-polished glass probe with a tip diameter of 2-3 μm. […] The reversal potentials were calculated using Vpipette at zero current with correction for the junction potential of the pipette and bath solutions (+1.2 mV for whole cell recording). Data were analyzed with Clampfit 10.7 (Molecular Devices). For the measurement of the inactivation time constant, all current responses, except for traces with a noticeable shift in baseline, were individually calculated and averaged.

DHS-sensitivity of whole-cell MS currents: DHS-sensitive
SMILES: CN[C@@H]1[C@H](O[C@H]2[C@H](O[C@H]3[C@H](O)[C@@H](O)[C@H](NC(=N)N)[C@@H](O)[C@@H]3NC(=N)N)O[C@@H](C)[C@]2(O)CO)O[C@@H](CO)[C@H](O)[C@H]1O [DHS, dihydrostreptomycin]
